Test results taken from patent US20040175691A1, “Use of the KCNQ2 and KCNQ3 genes for the discovery of agents useful in the treatment of neurological disorders” (priority 1998, published 2004).

Tests used:
Conditions in all cases: mean±s.e.m.
KCNQ2 + KCNQ3 = biological target: T1, KCNQ2 + KCNQ3 (UniProt O43526+O88944, DEL417-446); test: Blockade of KCNQ2+KCNQ3 channels expressed in Xenopus oocytes; type: cell-based, human KCNQ2, rat KCNQ3
T1 construct: Full-length KCNQ2 cDNAs were amplified from adult human brain cDNA; Multiple full-length cDNA clones were amplified in independent PCR reactions from rat SCG cDNA; expressed in transfected cells; host or cells: Xenopus oocytes injected with cRNA
Method: Method: Full-length KCNQ2 cDNAs were amplified from adult human brain cDNA using the following primers ([…], […]) with the Expand Fidelity enzyme mixture (Boehringer Mannheim, Indianapolis). […] This region is also alternatively spliced in the KCNQ2 cDNA clone described by Biervert et al. (1998). Preparation, injection of cRNA and recording from oocytes was performed at room temperature as described previously (Dixon et al. 1996). The standard extracellular recording solution contained: 82 mM NaCl, 2 mM KCl, 1.8 mM CaCl2, 1 mM MgCl2, and 5 mM Na-HEPES (pH 7.6). Data collection and analysis were performed using pClamp software (Axon Instruments, Foster City, Calif.).
Holding potential was −60 mV and the cell was repetitively depolarized to −30 mV for 1 minute to reach steady-state blockade. Tail currents were recorded at −50 mV.
IC50 values are all expressed in μM, mean±s.e.m. In cases where the IC50 values were greater than 100 μM the exact value is not reported due to limited solubility in the drug.

erg1 = biological target: T2, erg1 (Rattus norvegicus, UniProt O08962); test: Blockade of cloned erg1 channel in oocytes; type: cell-based
T2 construct: expressed in transfected cells; host or cells: oocytes (Xenopus)
T2 sequence (O08962 1-1163): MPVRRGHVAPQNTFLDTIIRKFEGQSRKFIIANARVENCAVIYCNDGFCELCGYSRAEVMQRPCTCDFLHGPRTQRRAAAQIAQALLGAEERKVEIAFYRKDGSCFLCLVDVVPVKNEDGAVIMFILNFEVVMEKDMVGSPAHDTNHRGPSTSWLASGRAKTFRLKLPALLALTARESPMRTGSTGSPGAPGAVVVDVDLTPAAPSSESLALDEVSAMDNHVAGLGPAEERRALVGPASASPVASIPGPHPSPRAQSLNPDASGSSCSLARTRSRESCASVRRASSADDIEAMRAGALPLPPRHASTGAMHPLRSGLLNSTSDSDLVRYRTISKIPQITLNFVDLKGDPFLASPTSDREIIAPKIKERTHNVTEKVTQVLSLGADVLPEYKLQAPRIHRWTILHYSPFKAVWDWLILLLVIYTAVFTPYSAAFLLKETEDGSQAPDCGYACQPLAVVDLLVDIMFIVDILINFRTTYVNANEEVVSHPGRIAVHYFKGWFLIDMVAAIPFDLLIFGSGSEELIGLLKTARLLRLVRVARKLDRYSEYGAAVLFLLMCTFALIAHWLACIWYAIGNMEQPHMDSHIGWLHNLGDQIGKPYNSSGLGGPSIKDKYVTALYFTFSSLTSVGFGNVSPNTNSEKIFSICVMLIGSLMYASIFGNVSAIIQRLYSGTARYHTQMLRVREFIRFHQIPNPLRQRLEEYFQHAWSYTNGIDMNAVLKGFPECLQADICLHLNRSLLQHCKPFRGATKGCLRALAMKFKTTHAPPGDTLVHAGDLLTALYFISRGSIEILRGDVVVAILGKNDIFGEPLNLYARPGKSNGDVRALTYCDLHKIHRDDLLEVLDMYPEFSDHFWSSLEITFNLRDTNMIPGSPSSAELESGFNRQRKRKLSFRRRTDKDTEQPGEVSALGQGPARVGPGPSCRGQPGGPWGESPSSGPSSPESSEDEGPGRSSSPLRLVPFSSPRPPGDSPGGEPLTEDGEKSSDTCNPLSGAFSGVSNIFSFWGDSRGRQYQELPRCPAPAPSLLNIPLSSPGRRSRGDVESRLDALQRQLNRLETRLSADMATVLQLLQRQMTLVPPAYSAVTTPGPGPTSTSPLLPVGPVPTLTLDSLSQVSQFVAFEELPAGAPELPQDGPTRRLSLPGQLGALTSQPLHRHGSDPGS

erg3 = biological target: T3, erg3 (Rattus norvegicus, UniProt O54852); test: Blockade of cloned erg3 channel in oocytes; type: cell-based
T3 construct: expressed in transfected cells; host or cells: oocytes (Xenopus)
T3 sequence (O54852 1-1195): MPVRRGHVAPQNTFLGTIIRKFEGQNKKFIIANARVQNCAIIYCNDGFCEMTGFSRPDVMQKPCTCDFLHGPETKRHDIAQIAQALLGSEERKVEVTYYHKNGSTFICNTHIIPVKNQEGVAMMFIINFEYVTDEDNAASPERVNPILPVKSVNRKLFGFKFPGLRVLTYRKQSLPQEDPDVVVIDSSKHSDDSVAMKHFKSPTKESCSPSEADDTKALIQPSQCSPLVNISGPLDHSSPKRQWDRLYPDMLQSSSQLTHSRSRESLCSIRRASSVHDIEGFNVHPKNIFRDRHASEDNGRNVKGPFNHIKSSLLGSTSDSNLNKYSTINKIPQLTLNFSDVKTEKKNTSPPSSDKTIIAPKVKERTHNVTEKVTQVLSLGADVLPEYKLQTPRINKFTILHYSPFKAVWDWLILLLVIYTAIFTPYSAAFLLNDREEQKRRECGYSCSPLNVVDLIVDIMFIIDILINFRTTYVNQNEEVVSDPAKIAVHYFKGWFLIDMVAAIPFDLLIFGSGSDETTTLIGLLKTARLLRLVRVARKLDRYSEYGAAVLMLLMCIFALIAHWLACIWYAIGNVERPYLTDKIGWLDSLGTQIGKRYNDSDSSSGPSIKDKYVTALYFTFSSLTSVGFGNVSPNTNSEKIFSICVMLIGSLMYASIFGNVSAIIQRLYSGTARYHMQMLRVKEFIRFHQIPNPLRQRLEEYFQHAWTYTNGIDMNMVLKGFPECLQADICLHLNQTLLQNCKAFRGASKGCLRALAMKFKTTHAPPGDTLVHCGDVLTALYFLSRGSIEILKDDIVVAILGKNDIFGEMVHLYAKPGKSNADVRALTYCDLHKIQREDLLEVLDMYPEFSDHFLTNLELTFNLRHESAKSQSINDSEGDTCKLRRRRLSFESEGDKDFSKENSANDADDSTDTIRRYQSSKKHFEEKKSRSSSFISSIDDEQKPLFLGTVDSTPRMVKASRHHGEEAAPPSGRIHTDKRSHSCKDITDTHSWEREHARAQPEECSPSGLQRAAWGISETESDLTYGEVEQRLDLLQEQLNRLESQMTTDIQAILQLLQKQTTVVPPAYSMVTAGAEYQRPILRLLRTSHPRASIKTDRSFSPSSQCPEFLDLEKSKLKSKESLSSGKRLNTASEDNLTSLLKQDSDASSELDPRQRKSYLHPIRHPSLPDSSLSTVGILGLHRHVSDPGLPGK

IC50 (KCNQ2 + KCNQ3) | IC50 (erg1) | IC50 (erg3) | SMILES
600 ± 100 nM | > 100 µM | > 100 µM | O=C1c2ccccc2C(Cc2ccncc2)(Cc2ccncc2)c2ccccc21 [XE991, 10,10-bis(4-pyridinylmethyl)-9(10H)-anthracenone]
4000 ± 500 nM | 53 ± 4 µM | 85 ± 5 µM | O=C1N(c2ccccc2)c2ccccc2C1(Cc1ccncc1)Cc1ccncc1 [Linopirdine, 3,3-bis(4-pyridinylmethyl)-1-phenylindolin-2-one]
